From patent US20110021471A1, “REDUCING Abeta42 LEVELS AND Abeta AGGREGATION” (priority 2007, published 2011)
Where two headings read alike, the source gives them in different places.

How the values were obtained:
H4Bri-C99 (CTF-3) = test system: H4Bri-C99 (CTF-3)
Method: FIG. 6. […] Parent GSMs and biotin tagged photoactivatable GSMs were evaluated for their effects on Aβ secreted from H4Bri-C99 (CTF-3). Cells were treated with compounds for 6 hours and Aβ measured by ELISA. […] Changes in Aβ (percent control)±s.e.m., n=3.
(§1) Photoaffinity labelling. All experiments used the following general protocol. Samples (recombinant or synthetic peptides, cell lysates and membrane preparations) were exposed in borosilicate test tubes to ultraviolet light (350 nm) in a Rayonet Photoreactor R100 (RPR-3500 lamps, Southern New England Ultra Violet Company) in a cold room (4° C.) for 30 minutes or as otherwise noted. Crosslinked samples were analyzed by ELISA for biotin incorporation, or analyzed directly by SDS-PAGE (Criterion-XT, Bio-Rad), or after precipitation with streptavidin ultralink plus beads (Pierce). After immunblotting, proteins were detected using chemiluminesence (ECL Plus, GEHealthcare) or near-infrared fluorescence (LiCor Odyssey). Full-length APP and APP CTFs (CTF83, CTF99) were detected with CT20, a rabbit polyclonal antibody against the C-terminus of APP. Biotin was detected with an affinity-purified rabbit polyclonal antibody (Bethyl). Cell-based screens for amyloid-β modulation. Human H4 neuroglioma cells (American Type Culture Collection, ATCC) expressing wild-type APP695 protein or CTF105 fused to secreted alkaline phosphatase which is efficiently processed to APP CTFs (CTF83, CTF99) and produce high levels of amyloid-β, were used for the cell-based screens as previously described. Cells were incubated for 5-6 hours in the presence of the various compounds in Opti-Mem culture medium containing 1% fetal bovine serum. Compounds were dissolved in dimethylsulphoxide (DMSO; 0.5% final concentration) and diluted 200-fold. Media was analyzed for various amyloid-β species (40, 42 and total) using ELISAs as described herein. The EC50 values for changes in amyloid-β species were calculated by fitting sigmoid dose-response curves using nonlinear regression in Prism (GraphPad) and are shown as values±s.e.m. Statistical analysis. Data are presented as either percentage control or mean±s.e.m. Results were analyzed using Prism (Graph Pad) with t-tests or one-way analysis of variance analyses (ANOVAs) with Dunnett's post-hoc correction for comparison of multiple samples to a control. Statistical significance is shown as P,0.05 (one asterisk), P,0.01 (two asterisks) or P,0.001 (three asterisks).

APP(C100)-Flag = target: T1, APP(C100)-Flag (Homo sapiens, UniProt P05067); test: Photoaffinity labelling of APP(C100)-Flag and competition; assay type: binding; details: for competition of Fen-B labeling of C100Flag: Fen-B 10 μM, C100Flag 1 μM, competitor 100 μM
T1 construct: APP(C100)-Flag, comprising the 99 C-terminal residues of APP plus a methionine at the N-terminus; added methionine (N)
T1 sequence (P05067 672-770 limits assumed): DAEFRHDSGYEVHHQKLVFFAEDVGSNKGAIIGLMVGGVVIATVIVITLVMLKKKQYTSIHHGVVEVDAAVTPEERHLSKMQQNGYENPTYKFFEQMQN
Method: (§2) FIG. 1. […] The top panel is for anti-biotin staining; the middle panel is for anti-FLAG staining; and the bottom panel is an overlay of anti-biotin (red and anti-Flag green, LiCor Odyssey imaging). (E) Same samples as in D, but analyzed using an ELISA. Following crosslinking, C100Flag and N100 Flag were captured using anti-FLAG plate, and biotin incorporation was measured using streptavidin-HRP. […] Fen-B (50 μM) was crosslinked to Aβ (10 μM). Biotin labeling was measured following capture with an anti-Aβ1-16 antibody and detection with streptavidin-HRP.
as §1
The ability of a purified, recombinant Flag-tagged γ-secretase substrate derived from APP (APP(C100)-Flag, comprising the 99 C-terminal residues of APP plus a methionine at the N-terminus) to be labeled by Fen-B and Flurbi-BpB was tested.

[1] = target: amyloid-β peptides (Aβ1-40, Aβ1-36, Aβ1-28, Flag-Aβ25-36) (Homo sapiens, UniProt P05067); test: Photoaffinity labelling of amyloid-β peptides; assay type: binding
Method: as §2, §1
Because the putative binding region of GSMs is also found in full-length APP, labeling of both APP fragments in cells was assayed.

APP-CTF = target: T2, APP-CTF (Homo sapiens, UniProt P05067); test: Photoaffinity labelling of APP and APP CTF in H4 cell membrane fractions and competition; assay type: binding; details: for competition of APP-CTF labeling by Fen-B and Flurbi-BpB: photoprobe 25 μM, competitor 200 μM
T2 construct: this protein was designated α-secretase-derived APP CTF (CTF83) on the basis of molecular weight; expressed in transfected cells
T2 sequence (P05067 688-770 limits assumed): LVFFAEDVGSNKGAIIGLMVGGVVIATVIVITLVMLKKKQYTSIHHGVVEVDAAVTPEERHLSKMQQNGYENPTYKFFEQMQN
Method: Photoaffinity labelling. All experiments used the following general protocol. Samples (recombinant or synthetic peptides, cell lysates and membrane preparations) were exposed in borosilicate test tubes to ultraviolet light (350 nm) in a Rayonet Photoreactor R100 (RPR-3500 lamps, Southern New England Ultra Violet Company) in a cold room (4° C.) for 30 minutes or as otherwise noted. Crosslinked samples were analyzed by ELISA for biotin incorporation, or analyzed directly by SDS-PAGE (Criterion-XT, Bio-Rad), or after precipitation with streptavidin ultralink plus beads (Pierce). After immunblotting, proteins were detected using chemiluminesence (ECL Plus, GEHealthcare) or near-infrared fluorescence (LiCor Odyssey). Full-length APP and APP CTFs (CTF83, CTF99) were detected with CT20, a rabbit polyclonal antibody against the C-terminus of APP. Biotin was detected with an affinity-purified rabbit polyclonal antibody (Bethyl). Cell-based screens for amyloid-β modulation.

[2] = test system: Human H4 neuroglioma cells expressing wild-type APP695 protein or CTF105; test: Cell-based screens for amyloid-β modulation (H4 cells, ELISA); details: for Aβ42 levels: H4 cells expressing APP
Description: Photoaffinity labelling. All experiments used the following general protocol. […] Cell-based screens for amyloid-β modulation. […] Statistical analysis.

γ-secretase = γ-secretase (Homo sapiens, UniProt P49768); test: Cell-free in vitro γ-secretase assay; assay type: biochemical; details: for Aβ40 in cell-free γ-secretase assay / total Aβ production in cell-free γ-secretase assay: increasing doses
Method: FIG. 5. Fenofibrate-Biotin (Fen-B) is an Aβ42 raising GSM that labels cell-derived APP-CTF. (A) The effects of fenofibrate and fenofibrate-biotin (Fen-B) on Aβ production were investigated in a cell-free in vitro γ-secretase assay performed as described in the methods. […] Percent control Aβ species±s.e.m., n=2. (B) Fen-B labels APP-CTFs from cells lysates. CHAPSO solubilized membrane fractions from H4 APP-CTF-105-AP cells were irradiated (350 nm) in the presence of Fen-B (50 μM) for 30 minutes. Biotinylated material was precipitated with streptavidin overnight (SAv). Beads were washed (3×) and then incubated with XT sample buffer, heated to 95° C., run on 12% Criterion XT gels, and transferred to nitrocellulose membranes. Blots were probed for biotin (Bethyl) and APP (CT20). Excess drug (Fen-B) and unlableled APP-CTF is detected in the flow-through from the beads (unbound lane). Biotin bound to streptavdin (SAv) is detected by the anti-biotin antibody. APP-CTF-83 is pulled down in lane 2 and is reactive with anti-biotin and anti-APP (CT20).
Congo red (CR) and chrysamine G (CG), two of the most well characterized amyloid-β dyes, act as GSMs in cell-free γ-secretase assays.

H4 APPwt cells = test: Immunoprecipitation-mass spectrometry of media from H4 APPwt cells; assay type: cell-based, human
Method: FIG. 14. Amyloid binding compounds alter the cleavage of Aβ similar to other established γ-secretase modulators Immunoprecipitation-mass spectrometry studies were conducted on media from H4 APPwt cells grown in the presence of test compounds for 16 hours. Conditions were: control (DMSO, 0.5%), sulindac sulfide (SS; 25 μM), chrysamine g (CG; 25 μM), and X-34 (25 μM). SS was included as a control GSM known to reduce Aβ42 and increase Aβ38. Spectra shown are representative of two experiments with 2-3 replicates each. Identified Aβ peptides based on calculated mass (m/z) are indicated above the peaks.

**Q.** How did the “Aβ42 (direction of change)” value (H4Bri-C99 (CTF-3); 6 hours) turn out when `CC(C(=O)O)c1ccc(-c2ccc(NC(=O)COc3ccc(C(=O)c4ccc(OCC(=O)NCCNC(=O)CCCC[C@H]5SC[C@H]6NC(=O)N[C@H]65)cc4)cc3)cc2)c(F)c1` (stereo in doubt) [Flurbi-BpB, 2-(2-fluoro-4′-(2-(4-(4-(2-oxo-2-(2-(5-((3aR,4R,6aS)-2-oxohexahydro-1H-thieno[3,4-d]imidazol-4 yl)pentanamido)ethylamino)ethoxy)benzoyl)phenoxy)acetamido)biphenyl-4-yl)propanoic acid] was run?
**A.** lowered Aβ42

**Q.** And the “labeling of APP(C100)-Flag” value (APP(C100)-Flag)?
**A.** label a recombinant APP c-secretase substrate (APP(C100)-Flag) with similar potency

**Q.** And the “labeling of Aβ1-36” value [1]?
**A.** labeled

**Q.** And the “labeling of Flag-tagged Aβ25-36” value [1]?
**A.** preferentially label

**Q.** What about the “labeling of full-length APP and APP CTFs” value (APP-CTF; microsomal membrane fractions from H4 cells expressing wild-type APP) of the same compound?
**A.** labeled full-length APP and APP CTFs

**Q.** How did the Aβ levels (H4Bri-C99 (CTF-3); 6 hours) turn out when `O=C(O)CCCC[C@@H]1SC[C@@H]2NC(=O)N[C@@H]21` [Biotin] was run?
**A.** no effect

**Q.** For `O=C(CCCC[C@H]1SC[C@H]2NC(=O)N[C@H]21)NCCNC(=O)COc1ccc(C(=O)c2ccccc2)cc1` [BpB, N-(2-(2-(4-benzoylphenoxy)acetamido)ethyl)-5-((3aR,4R,6aS)-2-oxohexahydro-1Hthieno[3,4-d]imidazol-4-yl)pentanamide], which “Aβ42 (direction of change)” value (H4Bri-C99 (CTF-3); 6 hours) is on record?
**A.** increased Aβ42

**Q.** What about the “labeling of Aβ1-36” value [1] of the same compound?
**A.** minor labelling

**Q.** For `O=C(O)c1cc(/N=N/c2ccc(-c3ccc(/N=N/c4ccc(O)c(C(=O)O)c4)cc3)cc2)ccc1O` [Chrysamine G], which Aβ42 levels [2] is on record?
**A.** decrease

**Q.** And the “Aβ42 in cell-free γ-secretase assay” value (γ-secretase)?
**A.** lowered Aβ42 selectively

**Q.** And the “Aβ40 in cell-free γ-secretase assay” value (γ-secretase)?
**A.** lowered Aβ40 at higher doses

**Q.** And the “total Aβ production in cell-free γ-secretase assay” value (γ-secretase)?
**A.** without decreasing total Aβ production

**Q.** And the “Aβ42 in cell-free γ-secretase assay” value (γ-secretase; listed as CG)?
**A.** lowered Aβ42 levels

**Q.** And the “shorter amyloid-β (IP-MS)” value (H4 APPwt cells)?
**A.** increased amounts of shorter amyloid-β

**Q.** And the “Aβ33 levels (IP-MS)” value (H4 APPwt cells; 25 μM, 16 hours)?
**A.** raise Aβ33 levels more effectively than SS

**Q.** What about the “levels of Aβ42 (IP-MS)” value (H4 APPwt cells; 25 μM, 16 hours) of the same compound?
**A.** consistently decrease levels of Aβ42

**Q.** For `Nc1c(/N=N/c2ccc(-c3ccc(/N=N/c4cc(S(=O)(=O)O)c5ccccc5c4N)cc3)cc2)cc(S(=O)(=O)O)c2ccccc12` [Congo red], which “Aβ42 in cell-free γ-secretase assay” value (γ-secretase) is on record?
**A.** lowered Aβ42 selectively

**Q.** And the “total Aβ production in cell-free γ-secretase assay” value (γ-secretase)?
**A.** without decreasing total Aβ production

**Q.** And the “Aβ42 in cell-free γ-secretase assay” value (γ-secretase; listed as CR)?
**A.** lowered Aβ42 levels

**Q.** How did the “competition of Fen-B labeling of C100Flag” value (“competition … of C100Flag” below) (APP(C100)-Flag) turn out when `CC(=O)Oc1ccccc1C(=O)O` [aspirin] was run?
**A.** did not compete

**Q.** Which “Aβ42 (direction of change)” value (H4Bri-C99 (CTF-3); 6 hours) does the source give for `O=C(c1ccccc1)c1ccccc1` [benzophenone] here?
**A.** increased Aβ42

**Q.** Which Aβ42 increase (H4Bri-C99 (CTF-3); 33 μM, 6 hours) does the source give for `CC(C)OC(=O)C(C)(C)Oc1ccc(C(=O)c2ccc(Cl)cc2)cc1` [fenofibrate] here?
**A.** 300%

**Q.** What about the “Toxicity, based on cell morphology and XTT assay” value (H4Bri-C99 (CTF-3); human, 6 h) of the same compound?
**A.** noted at higher concentrations (150, 200 μM)

**Q.** Which “competition … of C100Flag” value (APP(C100)-Flag) does the source give for `COc1ccc2cc([C@H](C)C(=O)O)ccc2c1` [naproxen] here?
**A.** did not compete

**Q.** How did the “Aβ42 in cell-free γ-secretase assay” value (γ-secretase) turn out when `CSc1ccc(/C=C2/C(C)=C(CC(=O)O)c3cc(F)ccc32)cc1` [sulindac sulfide] was run?
**A.** lowered Aβ42 levels

**Q.** And the “Aβ40 in cell-free γ-secretase assay” value (γ-secretase)?
**A.** lowered Aβ40 at higher doses

**Q.** And the “total Aβ production in cell-free γ-secretase assay” value (γ-secretase)?
**A.** without decreasing total Aβ production

**Q.** What about the “competition of APP-CTF labeling by Fen-B and Flurbi-BpB” value (APP-CTF) of the same compound?
**A.** decreases labeling of APP-CTF

**Q.** What about the “competition of FL-APP and APP CTF labeling by Fen-B and Flurbi-BpB” value (APP-CTF; photoprobes 50 μM, data not shown) of the same compound?
**A.** prevents labeling of FL-APP and APP CTF

**Q.** What about the “levels of Aβ42 (IP-MS)” value (H4 APPwt cells; 25 μM, 16 hours) of the same compound?
**A.** consistently decrease levels of Aβ42

**Q.** With `CC1=C(CC(=O)O)c2cc(F)ccc2/C1=C\c1ccc(S(C)(=O)=O)cc1` [sulindac sulfone] as the compound, how does the “competition … of C100Flag” value (APP(C100)-Flag) read?
**A.** not

**Q.** For “Aβ28-36: synthetic peptide of the putative GSM binding region (KGAIIGLMV; Amyloid-beta protein 42; UniProt P05067 699-707, looked up, fragment)”, which “competition for labeling of FLAG-Aβ-25-36 by Fen-B or Flurbi-BpB” value ([1]; competitor 100 μM, FLAG-Aβ-25-36 10 μM) is on record?
**A.** competes

**Q.** And the “competition of APP-CTF labeling by Fen-B and Flurbi-BpB” value (APP-CTF)?
**A.** decreases labeling of APP-CTF

**Q.** With NH2-FEGKF-CONH2 [I1] as the compound, how does the “total amyloid-β amounts” value [2] read?
**A.** without lowering total amyloid-β amounts

**Q.** What about the Aβ42 levels [2] of the same compound?
**A.** elevated Aβ42 production
